# According to patent US20160317474A1, “Managing Visual Dysfunction or Loss of Vision for Diabetic Subjects” (priority 2013, published 2016):
# Entries after “also recorded” stand apart in the source; their conditions may differ.
# Experiments:
# [1] = test system: retinal function of DM mice
# Text: Next, the postreceptoral function (i.e., b-wave) of these animals was examined.
# [2] = Behavioral side effects (dyskinesia) under L-DOPA; format: in vivo; conditions: L-DOPA 10 mg/kg daily, CTRL or DM mice
# Text: (§1) To examine whether DA deficiency causes visual deficits in early DR, the effects of restoring DA levels with L-DOPA on visual function of DM mice was investigated. […] Moreover, the severity of visual deficits progressed over time. The deficit in spatial frequency threshold of DM WT+Veh group (compared with CTRL WT+Veh group) worsened from 7.0% at 3 weeks after STZ to 12.3% at 6 weeks after STZ, whereas the reduction in contrast sensitivity deteriorated from 12.8% at 3 weeks after STZ to 43.6% at 6 weeks after STZ. […] The reduction in spatial frequency threshold of DM WT+L-DOPA group progressed from 2.4% at 3 weeks after STZ to 7.2% at 6 weeks after STZ, whereas the deficit in contrast sensitivity was only significant at 6 weeks after STZ, with an 18.0% reduction from CTRL animals. […] Furthermore, behavioral side effects such as dyskinesia with our current dosage of L-DOPA (10 mg/kg daily) in either CTRL or DM mice was not observed. A dosage was selected that was lower than the typical dosage used to induce dyskinesia (25 mg/kg) yet could still increase retinal DA levels.
# [3] = test system: retinal function of DM mice; assay: Light-adapted flicker ERG (cone pathway function); conditions: 5-week time point
# Experimental: Because OKT responses were recorded under photopic conditions, isolated cone pathway function was examined by exposing light-adapted animals to flicker stimuli.
# DM rTHKO mice = assay: OKT visual function with L-DOPA treatment in diabetic mice with loss of retinal DA (DM rTHKO); format: in vivo
# Experimental: Because systemic injections of L-DOPA affect both brain and retinal dopaminergic systems, the role of retinal DA deficiency underlying visual deficits in early-stage DR was tested by assessing the effects of diabetes in mice with loss of retinal DA (rTHKO mice). It is hypothesized that reduced retinal DA content is a major contributing factor to the early visual deficits, so diabetes in rTHKO mice should not result in a further decline in their visual function.
# [4] = test system: Th, Drd1, Drd4 transcript levels; assay: Real-time RT-PCR of retinal dopaminergic system-related genes; format: in vivo, mice
# Text: Note that the y-axis refers to averaged 2−ΔCt values, with ΔCt calculated by subtracting cycle threshold (Ct) of 18S from Ct of gene of interest (GOI). The asterisk indicates significant difference between the respective treatment group and the CTRL WT group.
# The specificity of our Th primers was confirmed, because a >4-fold reduction in Th expression in rTHKO mice (Student's t values: DM rTHKO+Veh=5.964 and DM rTHKO+L-DOPA=5.928, p<0.01; FIG. 7, Table 4) regardless of L-DOPA treatment was found.
# Whether diabetes affected transcript levels of DA receptors, specifically D1 receptor (Drd1) and D4 receptor (Drd4), which are selectively involved in spatial frequency threshold and contrast sensitivity was investigated. No significant changes were found in the transcript levels of Drd1 and Drd4 (FIG. 7, Table 4).
# STZ-induced DM WT mice = assay: Optokinetic tracking (OKT) visual function with chronic L-DOPA treatment in STZ-induced diabetic (DM) and CTRL WT mice; format: in vivo; conditions: for reduction in spatial frequency threshold: DM WT+L-DOPA group vs CTRL
# Text: as §1
# retinal DA levels = assay: Retinal dopamine content after daily intraperitoneal L-DOPA; format: in vivo, mice; conditions: daily intraperitoneal injections
# Experimental: To validate that daily intraperitoneal injections of L-DOPA were able to increase retinal DA levels, retinal dopamine contents of the following four groups of animals were measured: CTRL WT+Veh, CTRL WT+L-DOPA, DM rTHKO+Veh, and DM rTHKO+L-DOPA. The retinal TH deficiency in the rTHKO mice greatly diminished DA levels compared with both CTRL groups (one-way ANOVA with ranks, H=12.092 with 3 degrees of freedom, p=0.007; Table 3).
# 8-week DM WT mice = assay: OKT responses of 8-week DM WT mice after selective dopamine receptor agonists; format: in vivo; conditions: DM WT mice after 8 weeks of diabetes, agonist injection vs vehicle
# Experimental: After 8 weeks of diabetes, the animals were injected with vehicle, D1 receptor (D1R) agonist (SKF38393), and D4 receptor (D4R) agonist (PD168077).
structure (smiles),measurement,setting,value
"N[C@@H](Cc1ccc(O)c(O)c1)C(=O)O [L-DOPA, (−)-L-α-amino-β-(3,4-dihydroxybenzene)propanoic acid]",b-wave amplitude,"[1]; DM rTHKO mice (±L-DOPA) vs CTRL WT, dim and bright flash stimuli",significantly reduced responses
same,b-wave implicit times,"[1]; DM rTHKO+L-DOPA, dim and bright stimuli","strong, although not statistically significant, trend for improvement"
same,behavioral side effects such as dyskinesia,[2],not observed
same,flicker ERG responses (amplitude and implicit time),"[3]; DM WT+L-DOPA, light-adapted, 6 Hz flicker",levels similar to those of CTRL animals; also recorded: restore ERG responses of DM WT mice to those of CTRL mice
same,cone pathway functions (flicker responses),[3]; DM rTHKO+L-DOPA vs CTRL levels,partially restore
same,contrast sensitivities vs DM rTHKO+Veh,DM rTHKO mice,significantly better
same,visual functions of DM rTHKO mice,DM rTHKO mice; for the duration of the study,significantly improved
same,spatial frequency thresholds vs DM rTHKO+Veh,"DM rTHKO mice; throughout the study duration, p<0.001",significantly higher
same,Drd4 transcript levels,"[4]; DM WT+L-DOPA vs CTRL WT, p<0.05",significant downregulation; also recorded: downregulation of Drd4
same,Th transcript levels,"[4]; L-DOPA treatment, retina, RT-PCR",trend for Th downregulation
same,contrast sensitivity change,"STZ-induced DM WT mice; DM WT and L-DOPA mice, 6 weeks after STZ",slight decrease
same,onset of visual deficits (spatial frequency threshold),"STZ-induced DM WT mice; DM WT and L-DOPA mice, slower and less severe progression",4 weeks after STZ
same,onset and progression of visual dysfunction,"STZ-induced DM WT mice; DM WT mice, chronic L-DOPA treatment",significantly delayed
same,reduction in spatial frequency threshold,"STZ-induced DM WT mice; 3 weeks after STZ, L-DOPA 10 mg/kg daily",2.4%
same,reduction in spatial frequency threshold,"STZ-induced DM WT mice; 6 weeks after STZ, L-DOPA 10 mg/kg daily",7.2%
same,deficit in contrast sensitivity (reduction from CTRL animals),"STZ-induced DM WT mice; DM WT+L-DOPA group, 6 weeks after STZ, L-DOPA 10 mg/kg daily",18.0%
same,spatial frequency threshold or contrast sensitivity in CTRL mice,STZ-induced DM WT mice; non-diabetic CTRL mice treated with L-DOPA,did not cause significant changes
same,DA levels of CTRL mice,retinal DA levels; CTRL WT+L-DOPA,did not significantly increase
same,retina DA contents of rTHKO mice,retinal DA levels; DM rTHKO+L-DOPA,levels comparable to those of CTRL animals
Cc1cccc(C(=O)NCN2CCN(c3ccccc3C#N)CC2)c1 [PD168077],contrast sensitivity,8-week DM WT mice,only improved contrast sensitivity
same,spatial frequency threshold,8-week DM WT mice,failed to improve
same,contrast sensitivity,8-week DM WT mice; listed as D4 agonist,significantly enhanced
"Oc1cc2c(cc1O)C(c1ccccc1)CNCC2 (stereo not drawn) [SKF38393, 1-Phenyl-2,3,4,5-tetrahydro-(1H)-3-benzazepine-7,8-diol]",spatial frequency threshold,8-week DM WT mice,only improved spatial frequency threshold
same,spatial frequency threshold,8-week DM WT mice; listed as D1 receptor agonist,improved significantly
